Reference: PubChem BioAssay (NCI)
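48-hour exposure; five concentrations; linearly interpolated endpoints. Abbreviation: GI50, concentration required for 50% inhibition of growth. TGI: total growth inhibition.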

Experiments:
Assay in all cases: growth of human tumour cells (NCI), 48 h
SK-OV-3 ovarian = tested on: SK-OV-3 ovarian
A549 NSCLC = tested on: A549 NSCLC
HOP-62 NSCLC = tested on: HOP-62 NSCLC
SF-295 CNS = tested on: SF-295 CNS
SNB-19 CNS = tested on: SNB-19 CNS
EKVX NSCLC = tested on: EKVX NSCLC
SK-MEL-5 melanoma = tested on: SK-MEL-5 melanoma
SN12C renal = tested on: SN12C renal
OVCAR-8 ovarian = tested on: OVCAR-8 ovarian
TK-10 renal = tested on: TK-10 renal

Row | SMILES | GI50 (SK-OV-3 ovarian) [µM] | TGI (SK-OV-3 ovarian) [µM] | GI50 (A549 NSCLC) [µM] | TGI (A549 NSCLC) [µM] | GI50 (HOP-62 NSCLC) [µM] | TGI (HOP-62 NSCLC) [µM] | GI50 (SF-295 CNS) [µM] | TGI (SF-295 CNS) [µM] | GI50 (SNB-19 CNS) [µM] | TGI (SNB-19 CNS) [µM] | GI50 (EKVX NSCLC) [µM] | TGI (EKVX NSCLC) [µM] | GI50 (SK-MEL-5 melanoma) [µM] | TGI (SK-MEL-5 melanoma) [µM] | GI50 (SN12C renal) [µM] | TGI (SN12C renal) [µM] | GI50 (OVCAR-8 ovarian) [µM] | TGI (OVCAR-8 ovarian) [µM] | GI50 (TK-10 renal) [µM] | TGI (TK-10 renal) [µM]
1 | Cc1nn(-c2ccc(Cl)cc2)c2nc3c(nc12)C(=O)c1ccccc1-3 | 47.3 | > 100 | > 100 | > 100 | 13.7 | > 100 | > 100 | > 100 | > 100 | > 100 | > 100 | > 100 | > 100 | > 100 | > 100 | > 100 |  |  |  | 
2 | Nc1nc(/C=C\c2ccc([N+](=O)[O-])s2)nc(N2CCCC2)n1 | 9.25 | 30.4 | 2.97 | 22.9 | 13.5 | 26.7 | 4.4 | 21.3 | 3.01 | 21.6 | 10.8 | 30 | 9.66 | 22.5 | 3.45 | 20.5 | 3.49 | 22.5 | 6.27 | 20.9
3 | CNCC#Cc1c(F)ccc2c1/C(=C/c1[nH]ccc1OC)C(=O)N2 | 0.104 | 3.52 | 0.129 | 2.71 | 0.307 | 2.68 | 0.389 | 3.55 | 0.621 | 2.89 |  |  | 0.21 | 1.42 | 0.118 | 2.86 | 0.161 | 3.22 | 0.098 | 1.89
4 | C#C[C@]1(O)CCC2C3CCc4cc(O)ccc4C3CC[C@@]21C (stereo not given in full) | 3.45 | 49.6 | 5.81 | > 100 | 4.34 | 16.6 | 2.7 | 12.2 | 7.59 | > 100 | 1.66 | > 100 | 2.24 | 7.6 | 6.41 | 37.6 | 5.8 | 37.2 | 10.3 | > 100
5 | COc1cc(F)ccc1-c1ncnc(Nc2cccc(CS(C)(=N)=O)c2)n1 (stereo not given) | 2.9 | > 100 | 2.83 | > 100 | 0.564 | 8.38 |  |  | 1.08 | > 100 | 1.4 | 37.2 |  |  | 0.645 | > 100 | 1.16 | > 100 |  | 
6 | COc1ccc2c(c1)C(=O)c1c-2c(N2CCN(C(=O)CNCCNCCO)CC2)nc2ccccc12 | 13.7 | 28.2 | 7.1 | 24.3 |  |  | 12.4 | 32.3 | 11.1 | 28.4 | 7.15 | 19.7 | 13.3 | 27.5 | 3.91 | 13.3 | 10.2 | 33.8 | 13.7 | 32.9
7 | [N-]=[N+]=N[C@H]1C[C@@H](CO)O[C@H]1n1cnc2c(N)ncnc21 |  |  |  | > 100 |  | > 100 |  | > 100 |  | > 100 |  | > 100 |  | > 100 |  | > 100 |  | > 100 |  | > 100
